The text below walks through data of patent US10174035B2, “6-morpholinyl-2-pyrazolyl-9H-purine derivatives and their use as PI3K inhibitors” (Daiichi Sankyo Company, Limited, priority 2015, dated 2019).

The term IC50 denotes the midpoint of a concentration-inhibition curve.

The target in this assay is recombinant PI3K δ enzyme (Homo sapiens (Human), UniProt O00329). As to the kind of experiment: In vitro enzyme assay (Kinase-Glo luminescent kinase assay), PI3Kδ. Type of assay: biochemical. As for the experimental part:
The Kinase-Glo luminescent kinase assay kit (from Promega) was used to measure kinase activity. In this assay, amount of ATP remaining in solution following a kinase reaction is measured. The effect of compounds on PI3Kδ inhibition was carried out by adding 2.29 μg/ml of recombinant PI3K δ enzyme (Proteros, Germany) to reaction mixture containing assay buffer (50 mM HEPES, pH 7.4, 50 mM NaCl, 0.05% CHAPS) supplemented with 10 mM MgCl2, 5 mM DTT, 60 μM Phosphatidyl inositol bisphosphate (PIP2) and 10 μM ATP in the absence or presence of different concentrations of the compounds in a final volume of 15 μl/well, in a 384 well plate. The reaction mixture was incubated for 2 hours at room temperature. At the end of incubation period the equal volume of Kinase-Glo plus (Promega, V3772), was added per well and the luminescence was measured after incubating for 10 minutes at room temperature in dark. Results were calculated by measuring the luminescence units of test samples to blanks containing no enzyme.
The compounds of the present invention were tested for their selectivity for PI3Kδ over PI3Kα, PI3Kβ and PI3Kγ following the above assay using specific recombinant enzymes (Proteros, Germany) for each kinase. Assay condition of kinase assay (PI3Kα, PI3Kβ, PI3Kγ and PI3Kδ) was as follows. Enzyme: 2.29 μg/mL; ATP: 10 μM; PIP2 substrate: 60 μM and Reaction Time: 2 hours.
On the technique in general: Kinase-Glo measures the ATP left after a reaction by luminescence.

Sequence of recombinant PI3K δ enzyme (O00329 whole entry, species assumed): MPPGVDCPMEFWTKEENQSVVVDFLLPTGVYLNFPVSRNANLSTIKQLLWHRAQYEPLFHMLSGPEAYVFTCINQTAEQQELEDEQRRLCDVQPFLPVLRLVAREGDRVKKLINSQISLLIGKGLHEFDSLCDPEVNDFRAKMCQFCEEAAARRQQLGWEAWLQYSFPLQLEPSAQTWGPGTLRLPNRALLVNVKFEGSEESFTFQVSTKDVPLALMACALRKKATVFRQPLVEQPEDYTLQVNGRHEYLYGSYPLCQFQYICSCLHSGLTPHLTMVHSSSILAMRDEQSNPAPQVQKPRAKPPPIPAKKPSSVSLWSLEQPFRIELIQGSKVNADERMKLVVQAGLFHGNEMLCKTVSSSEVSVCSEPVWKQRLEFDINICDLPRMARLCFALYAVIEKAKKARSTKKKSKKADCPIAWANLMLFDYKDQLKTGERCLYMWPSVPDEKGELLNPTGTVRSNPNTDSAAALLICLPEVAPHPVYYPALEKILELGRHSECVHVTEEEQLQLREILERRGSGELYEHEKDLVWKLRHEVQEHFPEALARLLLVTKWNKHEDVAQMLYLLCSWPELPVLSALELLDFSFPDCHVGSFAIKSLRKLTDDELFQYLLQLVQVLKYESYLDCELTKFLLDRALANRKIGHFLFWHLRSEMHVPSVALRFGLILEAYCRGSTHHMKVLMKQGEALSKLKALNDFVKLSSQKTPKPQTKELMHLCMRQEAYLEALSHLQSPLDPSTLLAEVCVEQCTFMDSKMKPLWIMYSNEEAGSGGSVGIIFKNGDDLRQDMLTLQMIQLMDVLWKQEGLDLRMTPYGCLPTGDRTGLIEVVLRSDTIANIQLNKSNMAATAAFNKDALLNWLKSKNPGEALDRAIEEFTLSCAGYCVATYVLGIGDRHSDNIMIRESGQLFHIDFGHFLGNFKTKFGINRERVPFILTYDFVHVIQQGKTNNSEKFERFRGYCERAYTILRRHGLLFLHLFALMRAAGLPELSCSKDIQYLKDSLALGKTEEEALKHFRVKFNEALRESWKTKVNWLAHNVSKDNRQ
Sequence of recombinant PI3K δ enzyme (P27986 whole entry partner, species assumed): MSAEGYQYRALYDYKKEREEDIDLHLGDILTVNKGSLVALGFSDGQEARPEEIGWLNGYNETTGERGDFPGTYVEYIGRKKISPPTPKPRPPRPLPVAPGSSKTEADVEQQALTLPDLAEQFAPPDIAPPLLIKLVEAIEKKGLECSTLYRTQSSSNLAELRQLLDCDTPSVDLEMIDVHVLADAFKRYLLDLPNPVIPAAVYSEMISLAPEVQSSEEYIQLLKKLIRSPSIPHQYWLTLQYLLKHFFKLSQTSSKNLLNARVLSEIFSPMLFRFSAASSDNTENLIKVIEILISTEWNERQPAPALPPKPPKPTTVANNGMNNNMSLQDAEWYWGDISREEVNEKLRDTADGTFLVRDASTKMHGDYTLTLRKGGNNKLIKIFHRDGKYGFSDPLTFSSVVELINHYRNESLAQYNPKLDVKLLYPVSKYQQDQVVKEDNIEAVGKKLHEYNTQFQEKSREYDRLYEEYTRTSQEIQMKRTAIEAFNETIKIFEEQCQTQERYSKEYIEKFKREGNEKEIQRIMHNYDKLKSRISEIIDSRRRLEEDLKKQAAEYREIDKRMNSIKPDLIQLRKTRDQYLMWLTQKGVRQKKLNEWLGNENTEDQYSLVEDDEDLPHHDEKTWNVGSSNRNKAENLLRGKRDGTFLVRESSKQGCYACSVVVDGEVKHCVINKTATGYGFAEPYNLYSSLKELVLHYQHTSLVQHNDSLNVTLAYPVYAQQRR

As for `Cc1nn(C)c(C)c1-c1nc2[nH]c(C(=O)N3CCC(N4CCOCC4)CC3)nc2c(N2CCOCC2)c1F` [Compound No. 93], the IC50 is 26 nM. Take `C[C@@H]1CN(C2CN(C(=O)c3nc4c(N5CCOCC5)cc(-c5cnn(C)c5)nc4[nH]3)C2)C[C@H](C)O1` [Compound No. 119, {3-[(2R,6S)-2,6-dimethylmorpholin-4-yl]azetidin-1-yl}[5-(1-methyl-1H-pyrazol-4-yl)-7-(morpholin-4-yl)-3H-imidazo[4,5-b]pyridin-2-yl]methanone]: the IC50 is 5 nM.

On to `CN(C(=O)c1nc2c(N3CCOCC3)cc(-c3cnn(C)c3)nc2[nH]1)C1CCN(C2CCOCC2)CC1` [Compound No. 121, N-Methyl-5-(1-methyl-1H-pyrazol-4-yl)-7-(morpholin-4-yl)-N-[1-(tetrahydro-2H-pyran-4-yl)piperidin-4-yl]-3H-imidazo[4,5-b]pyridine-2-carboxamide], for which the IC50 came to 52 nM.

Take `Cn1cc(-c2cc(N3CCOCC3)c3nc(C(=O)N4CC(N5CCNC(=O)C5)C4)[nH]c3n2)cn1` [Compound No. 128, 4-(1-{[5-(1-Methyl-1H-pyrazol-4-yl)-7-(morpholin-4-yl)-3H-imidazo[4,5-b]pyridin-2-yl]carbonyl}azetidin-3-yl)piperazin-2-one]: the IC50 amounted to 19 nM. The value for `CN1CCN(C2CN(C(=O)c3nc4c(N5CCOCC5)cc(-c5cnn(C)c5)nc4[nH]3)C2)CC1=O` [Compound No. 129, 1-Methyl-4-(1-{[5-(1-methyl-1H-pyrazol-4-yl)-7-(morpholin-4-yl)-3H-imidazo[4,5-b]pyridin-2-yl]carbonyl}azetidin-3-yl)piperazin-2-one] was 10 nM. The value for `CN1CCN(C2CN(C(=O)c3nc4c(N5CCOCC5)nc(-c5cnn(C)c5)nc4[nH]3)C2)CC1=O` [Compound No. 130, 1-Methyl-4-(1-{[2-(1-methyl-1H-pyrazol-4-yl)-6-(morpholin-4-yl)-9H-purin-8-yl]carbonyl}azetidin-3-yl)piperazin-2-one] was 10 nM; that for `CN(C(=O)c1nc2c(N3CCOCC3)cc(-c3cnn(C)c3)nc2[nH]1)C1CCN(C2COC2)CC1` [Compound No. 131, N-Methyl-5-(1-methyl-1H-pyrazol-4-yl)-7-(morpholin-4-yl)-N-[1-(oxetan-3-yl)piperidin-4-yl]-3H-imidazo[4,5-b]pyridine-2-carboxamide] was 146 nM.

`Cn1cc(-c2nc(N3CCOCC3)c3nc(C(=O)NCCc4cccnc4)[nH]c3n2)cn1` [compound 1, 2-(1-Methyl-1H-pyrazol-4-yl)-6-(morpholin-4-yl)-N-[2-(pyridin-3-yl)ethyl]-9H-purine-8-carboxamide]: the half-inhibitory concentration (IC50) came to 61 nM. For the molecule `Cn1cc(-c2nc(N3CCOCC3)c3nc(C(=O)NCCN4CCOCC4)[nH]c3n2)cn1` [compound 2, 2-(1-Methyl-1H-pyrazol-4-yl)-6-(morpholin-4-yl)-N-[2-(morpholin-4-yl)ethyl]-9H-purine-8-carboxamide], the IC50 turned out to be 48 nM. The value for `Cn1cc(-c2nc(N3CCOCC3)c3nc(C(=O)N4CC(O)C4)[nH]c3n2)cn1` [compound 4, (3-Hydroxyazetidin-1-yl)[2-(1-methyl-1H-pyrazol-4-yl)-6-(morpholin-4-yl)-9H-purin-8-yl]methanone] was 27 nM; that for `Cn1cc(-c2nc(N3CCOCC3)c3nc(C(=O)N4CCN5C(=O)COC[C@H]5C4)[nH]c3n2)cn1` [compound 6, (9aR)-8-{[2-(1-Methyl-1H-pyrazol-4-yl)-6-(morpholin-4-yl)-9H-purin-8-yl]carbonyl}hexahydropyrazino[2,1-c][1,4]oxazin-4(3H)-one] was 36 nM; that for `Cn1cc(-c2nc(N3CCOCC3)c3nc(C(=O)N4CCC(N5CCOCC5=O)CC4)[nH]c3n2)cn1` [compound 7, 4-(1-{[2-(1-Methyl-1H-pyrazol-4-yl)-6-(morpholin-4-yl)-9H-purin-8-yl]carbonyl}piperidin-4-yl)morpholin-3-one] was 42 nM.

`Cc1nn(C)cc1-c1nc(N2CCOCC2)c2nc(C(=O)N3CCN(C4CCOCC4)CC3)[nH]c2n1` [compound 9, [2-(1,3-Dimethyl-1H-pyrazol-4-yl)-6-(morpholin-4-yl)-9H-purin-8-yl][4-(tetrahydro-2H-pyran-4-yl)piperazin-1-yl]methanone]: the IC50 amounted to 9 nM. `Cn1cc(-c2nc(N3CCOCC3)c3nc(C(=O)N4CCN(C5CCOCC5)CC4)[nH]c3n2)cn1` [compound 11, [2-(1-Methyl-1H-pyrazol-4-yl)-6-(morpholin-4-yl)-9H-purin-8-yl][4-(tetrahydro-2H-pyran-4-yl)piperazin-1-yl]methanone]: the IC50 was found to be 26 nM. On to `Cc1nn(C)cc1-c1nc(N2CCOCC2)c2nc(C(=O)N3CCC(C(C)(C)O)CC3)[nH]c2n1` [compound 12, [2-(1,3-Dimethyl-1H-pyrazol-4-yl)-6-(morpholin-4-yl)-9H-purin-8-yl][4-(2-hydroxypropan-2-yl)piperidin-1-yl]methanone], for which the half-maximal inhibitory concentration (IC50) was determined as 34 nM. The value for `Cn1cc(-c2nc(N3CCOCC3)c3nc(C(=O)N4CCC[C@H](N5CCOCC5)C4)[nH]c3n2)cn1` [compound 13, [2-(1-Methyl-1H-pyrazol-4-yl)-6-(morpholin-4-yl)-9H-purin-8-yl][(3S)-3-(morpholin-4-yl)piperidin-1-yl]methanone] was 88 nM. As for `Cn1cc(-c2nc(N3CCOCC3)c3nc(C(=O)N4CCS(=O)(=O)CC4)[nH]c3n2)cn1` [compound 15, (1,1-Dioxidothiomorpholin-4-yl)[2-(1-methyl-1H-pyrazol-4-yl)-6-(morpholin-4-yl)-9H-purin-8-yl]methanone], the IC50 amounted to 123 nM. The figure for `Cc1n[nH]c(C)c1-c1nc(N2CCOCC2)c2nc(C(=O)N3CCC(N4CCOCC4)CC3)[nH]c2n1` [compound 16, [2-(3,5-Dimethyl-1H-pyrazol-4-yl)-6-(morpholin-4-yl)-9H-purin-8-yl][4-(morpholin-4-yl)piperidin-1-yl]methanone] is 88 nM; for `Cn1cc(-c2nc(N3CCOCC3)c3nc(C(=O)N4CCC(N5CCOCC5)CC4)[nH]c3n2)c(C(F)(F)F)n1` [compound 17, {2-[1-Methyl-3-(trifluoromethyl)-1H-pyrazol-4-yl]-6-(morpholin-4-yl)-9H-purin-8-yl}[4-(morpholin-4-yl)piperidin-1-yl]methanone] it is 12 nM; for `CC(C)n1cc(-c2nc(N3CCOCC3)c3nc(C(=O)N4CCC(N5CCOCC5)CC4)[nH]c3n2)cn1` [compound 18, [4-(Morpholin-4-yl)piperidin-1-yl]{6-(morpholin-4-yl)-2-[1-(propan-2-yl)-1H-pyrazol-4-yl]-9H-purin-8-yl}methanone] it is 230 nM. The figure for `Cn1cc(-c2nc(N3CCOCC3)c3nc(C(=O)N4CCNCC4)[nH]c3n2)cn1` [compound 20, [2-(1-Methyl-1H-pyrazol-4-yl)-6-(morpholin-4-yl)-9H-purin-8-yl](piperazin-1-yl)methanone] is 86 nM; for `CCn1c(C(=O)N2CCC(N(C)C)CC2)nc2c(N3CCOCC3)nc(-c3cnn(C)c3)nc21` [compound 21, [4-(Dimethylamino)piperidin-1-yl][9-ethyl-2-(1-methyl-1H-pyrazol-4-yl)-6-(morpholin-4-yl)-9H-purin-8-yl]methanone] it is 313 nM. For `CCn1c(C(=O)N2CCC(N3CCOCC3)CC2)nc2c(N3CCOCC3)nc(-c3cnn(C)c3)nc21` [compound 22, [9-Ethyl-2-(1-methyl-1-pyrazol-4-yl)-6-(morpholin-4-yl)-9H-purin-8-yl][4-(morpholin-4-yl)piperidin-1-yl]methanone], the IC50 was 368 nM. Turning to `Cn1cc(-c2nc(N3CCOCC3)c3nc(C(=O)N4CCC(N5CCOCC5)CC4)n(C)c3n2)cn1` [compound 23, [9-Methyl-2-(1-methyl-1H-pyrazol-4-yl)-6-(morpholin-4-yl)-9H-purin-8-yl][4-(morpholin-4-yl)piperidin-1-yl]methanone], the IC50 was found to be 198 nM.

Turning to `Cn1cc(-c2nc(N3CCOCC3)c3nc(C(=O)N4CCN(C(=O)c5ncccn5)CC4)[nH]c3n2)cn1` [compound 25, [2-(1-Methyl-1H-pyrazol-4-yl)-6-(morpholin-4-yl)-9H-purin-8-yl][4-(pyrimidin-2-ylcarbonyl)piperazin-1-yl]methanone], the IC50 was 99 nM.

Turning to `CC(=O)NC1CCN(C(=O)c2nc3c(N4CCOCC4)nc(-c4cnn(C)c4)nc3[nH]2)CC1` [compound 26, N-(1-{[2-(1-methyl-1H-pyrazol-4-yl)-6-(morpholin-4-yl)-9H-purin-8-yl]carbonyl}piperidin-4-yl)acetamide], the IC50 is 101 nM. The figure for `Cn1cc(-c2nc(N3CCOCC3)c3nc(C(=O)N4CCN(c5ncccn5)CC4)[nH]c3n2)cn1` [compound 27, [2-(1-Methyl-1H-pyrazol-4-yl)-6-(morpholin-4-yl)-9H-purin-8-yl][4-(pyrimidin-2-yl)piperazin-1-yl]methanone] is 128 nM. The value for `Cn1cc(-c2nc(N3CCOCC3)c3nc(C(=O)N4CCC(NS(C)(=O)=O)CC4)[nH]c3n2)cn1` [compound 28, N-(1-{[2-(1-methyl-1H-pyrazol-4-yl)-6-(morpholin-4-yl)-9H-purin-8-yl]carbonyl}piperidin-4-yl)methanesulfonamide] was 69 nM.
